Test results reported in ChEMBL document CHEMBL1201862, “PubChem BioAssay data set” (2004).
Active and inactive are the calls of the source.

Tests used:
BJ [1] = experiment: BJ-TERT fibroblast viability loss – cell-based, RAS-independent, luminescence, dose response (AID 1933); type: functional; settings: Homo sapiens
BJ [2] = experiment: cells; type: functional, cell-based; settings: Homo sapiens
[3] = viability of PTEN-deleted HCT116 cells – cell-based, HCT116 PTEN knockout, dose response (AID 1047); type: functional;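 also: HCT116 colon tumor cells with PTEN knocked out; cells exposed to compound for 60 hours before readout; potency for loss of cell viability measured by luminescence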
[4] = viability of HCT116 lacking mutant beta-catenin – cell-based, human colon tumor, dose response (AID 1045); type: functional;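 also: HCT116 colon tumor cells with beta catenin knocked out; cells exposed to compound for 60 hours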
BJ [5] = experiment: BJ-TERT-LT-ST fibroblast viability loss – cell-based, RAS-independent, luminescence, dose response (AID 1935); type: functional; settings: Homo sapiens;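 also: BJ fibroblasts immortalized with TERT plus LT and ST oncogenes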
[6] = DRD fibroblast viability loss – cell-based, non-viral oncogenic, luminescence, dose response (AID 1934); type: functional; settings: Homo sapiens
[7] = Intein inhibitors as potential Tuberculosis drugs, a cytotoxicity screen. [Related pubchem assays (depositor defined):AID2221, AID2223, AID434968, AID435010, AID449749, AID449750, AID489010]; type: functional
[8] = biological target: T1, Replicative DNA helicase DnaB (Mycobacterium tuberculosis, UniProt P9WMR3); experiment: DnaB intein splicing inhibitors, dose response, biochemical, cell-free fluorescence (AID 449749); type: functional
T1 sequence (P9WMR3 whole entry): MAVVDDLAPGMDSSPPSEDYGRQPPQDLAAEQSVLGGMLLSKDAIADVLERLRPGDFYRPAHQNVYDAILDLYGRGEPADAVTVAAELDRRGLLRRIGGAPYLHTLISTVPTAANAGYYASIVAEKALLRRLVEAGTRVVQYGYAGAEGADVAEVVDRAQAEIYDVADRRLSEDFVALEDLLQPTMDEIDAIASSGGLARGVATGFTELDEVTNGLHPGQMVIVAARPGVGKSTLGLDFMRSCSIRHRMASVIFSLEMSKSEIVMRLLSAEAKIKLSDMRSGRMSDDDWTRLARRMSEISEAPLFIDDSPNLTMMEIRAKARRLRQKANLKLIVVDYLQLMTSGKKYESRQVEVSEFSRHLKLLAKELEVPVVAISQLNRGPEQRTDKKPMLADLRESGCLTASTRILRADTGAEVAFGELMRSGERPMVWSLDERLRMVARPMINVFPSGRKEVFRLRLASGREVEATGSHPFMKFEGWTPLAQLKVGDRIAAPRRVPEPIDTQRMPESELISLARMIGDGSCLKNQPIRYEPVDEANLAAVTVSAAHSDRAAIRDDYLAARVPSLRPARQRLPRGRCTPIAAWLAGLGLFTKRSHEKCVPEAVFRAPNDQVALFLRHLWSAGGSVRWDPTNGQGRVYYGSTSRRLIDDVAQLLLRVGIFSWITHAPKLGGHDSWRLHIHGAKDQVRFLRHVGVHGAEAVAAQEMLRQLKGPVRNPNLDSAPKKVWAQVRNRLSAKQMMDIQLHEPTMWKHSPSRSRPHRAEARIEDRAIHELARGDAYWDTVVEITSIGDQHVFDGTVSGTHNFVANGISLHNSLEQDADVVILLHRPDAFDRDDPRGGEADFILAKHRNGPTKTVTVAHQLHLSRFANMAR

BJ [9] = experiment: growth inhibition of engineered Ras-driven BJ cells – cell-based, alamar blue fluorescence, cherrypicked samples, dose response (AID 2631); type: functional; settings: Homo sapiens;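 also: confirmatory dose-response assay in RAS-dependent BJ fibroblasts engineered with TERT, LT and ST, with cytotoxicity read by fluorescence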
Protein RecA = biological target: T2, Protein RecA (Mycobacterium tuberculosis, UniProt P9WHJ3); experiment: Fluorescence Cell-Free Homogeneous Dose Retest to Identify Inhibitors of RecA-Intein Splicing Activity. [Related pubchem assays (depositor defined):AID2097, AID2223, AID489010, AID492950]; type: functional
T2 sequence (P9WHJ3 whole entry): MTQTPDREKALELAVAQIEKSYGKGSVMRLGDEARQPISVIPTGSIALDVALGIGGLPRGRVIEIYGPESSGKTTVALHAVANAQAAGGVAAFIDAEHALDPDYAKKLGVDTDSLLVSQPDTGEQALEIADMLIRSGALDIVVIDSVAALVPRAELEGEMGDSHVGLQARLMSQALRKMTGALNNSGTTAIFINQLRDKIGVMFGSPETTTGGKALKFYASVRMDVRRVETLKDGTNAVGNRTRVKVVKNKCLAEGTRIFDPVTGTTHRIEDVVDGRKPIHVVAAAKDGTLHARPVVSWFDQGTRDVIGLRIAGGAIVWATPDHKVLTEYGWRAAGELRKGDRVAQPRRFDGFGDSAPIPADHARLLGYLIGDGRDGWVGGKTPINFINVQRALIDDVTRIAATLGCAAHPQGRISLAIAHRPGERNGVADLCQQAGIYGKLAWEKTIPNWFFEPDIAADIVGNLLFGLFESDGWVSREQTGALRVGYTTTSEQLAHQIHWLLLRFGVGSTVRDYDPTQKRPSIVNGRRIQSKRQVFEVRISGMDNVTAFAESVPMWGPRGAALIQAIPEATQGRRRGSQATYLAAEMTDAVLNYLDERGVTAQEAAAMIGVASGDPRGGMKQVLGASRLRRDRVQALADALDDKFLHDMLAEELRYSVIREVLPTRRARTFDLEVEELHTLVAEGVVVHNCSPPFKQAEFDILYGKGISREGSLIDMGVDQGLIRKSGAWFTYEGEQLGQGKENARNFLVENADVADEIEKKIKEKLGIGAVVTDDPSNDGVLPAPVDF

Paired box protein Pax-8 = Paired box protein Pax-8 (Homo sapiens, UniProt Q06710); experiment: PAX8 transcriptional activity inhibition in RMG-I – RMG-I cells, luciferase, cherry-pick, dose response (AID 687027); type: functional, cell-based;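 also: luciferase reporter driven by Pax8 target thyroperoxidase promoter measured by SteadyGlo luminescence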
Paired box protein Pax-8, sequence (Q06710 whole entry): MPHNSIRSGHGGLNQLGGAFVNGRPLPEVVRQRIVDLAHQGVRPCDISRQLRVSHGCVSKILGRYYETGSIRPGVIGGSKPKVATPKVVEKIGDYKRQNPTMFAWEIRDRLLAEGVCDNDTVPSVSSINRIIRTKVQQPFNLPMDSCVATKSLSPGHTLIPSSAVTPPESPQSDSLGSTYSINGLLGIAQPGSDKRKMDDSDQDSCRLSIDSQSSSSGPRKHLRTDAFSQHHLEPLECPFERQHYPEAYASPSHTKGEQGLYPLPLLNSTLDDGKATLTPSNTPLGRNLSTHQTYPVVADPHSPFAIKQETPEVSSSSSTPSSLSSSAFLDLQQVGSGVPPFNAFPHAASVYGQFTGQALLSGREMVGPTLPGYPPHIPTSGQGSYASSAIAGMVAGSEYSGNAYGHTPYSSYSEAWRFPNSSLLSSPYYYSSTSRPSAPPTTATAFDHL

[10] = general cell-killing toxicity readout – plate reader, dry powder samples, cytotoxicity control for PAX8 inhibitor project, dose response (AID 743021); type: functional, cell-based
[11] = biological target: T3, Voltage-gated N-type calcium channel alpha-1B subunit/Amyloid beta A4 precursor protein-binding family A member 1 (Homo sapiens, UniProt Q00975+Q02410); type: protein assay
T3 sequence (Q00975 whole entry): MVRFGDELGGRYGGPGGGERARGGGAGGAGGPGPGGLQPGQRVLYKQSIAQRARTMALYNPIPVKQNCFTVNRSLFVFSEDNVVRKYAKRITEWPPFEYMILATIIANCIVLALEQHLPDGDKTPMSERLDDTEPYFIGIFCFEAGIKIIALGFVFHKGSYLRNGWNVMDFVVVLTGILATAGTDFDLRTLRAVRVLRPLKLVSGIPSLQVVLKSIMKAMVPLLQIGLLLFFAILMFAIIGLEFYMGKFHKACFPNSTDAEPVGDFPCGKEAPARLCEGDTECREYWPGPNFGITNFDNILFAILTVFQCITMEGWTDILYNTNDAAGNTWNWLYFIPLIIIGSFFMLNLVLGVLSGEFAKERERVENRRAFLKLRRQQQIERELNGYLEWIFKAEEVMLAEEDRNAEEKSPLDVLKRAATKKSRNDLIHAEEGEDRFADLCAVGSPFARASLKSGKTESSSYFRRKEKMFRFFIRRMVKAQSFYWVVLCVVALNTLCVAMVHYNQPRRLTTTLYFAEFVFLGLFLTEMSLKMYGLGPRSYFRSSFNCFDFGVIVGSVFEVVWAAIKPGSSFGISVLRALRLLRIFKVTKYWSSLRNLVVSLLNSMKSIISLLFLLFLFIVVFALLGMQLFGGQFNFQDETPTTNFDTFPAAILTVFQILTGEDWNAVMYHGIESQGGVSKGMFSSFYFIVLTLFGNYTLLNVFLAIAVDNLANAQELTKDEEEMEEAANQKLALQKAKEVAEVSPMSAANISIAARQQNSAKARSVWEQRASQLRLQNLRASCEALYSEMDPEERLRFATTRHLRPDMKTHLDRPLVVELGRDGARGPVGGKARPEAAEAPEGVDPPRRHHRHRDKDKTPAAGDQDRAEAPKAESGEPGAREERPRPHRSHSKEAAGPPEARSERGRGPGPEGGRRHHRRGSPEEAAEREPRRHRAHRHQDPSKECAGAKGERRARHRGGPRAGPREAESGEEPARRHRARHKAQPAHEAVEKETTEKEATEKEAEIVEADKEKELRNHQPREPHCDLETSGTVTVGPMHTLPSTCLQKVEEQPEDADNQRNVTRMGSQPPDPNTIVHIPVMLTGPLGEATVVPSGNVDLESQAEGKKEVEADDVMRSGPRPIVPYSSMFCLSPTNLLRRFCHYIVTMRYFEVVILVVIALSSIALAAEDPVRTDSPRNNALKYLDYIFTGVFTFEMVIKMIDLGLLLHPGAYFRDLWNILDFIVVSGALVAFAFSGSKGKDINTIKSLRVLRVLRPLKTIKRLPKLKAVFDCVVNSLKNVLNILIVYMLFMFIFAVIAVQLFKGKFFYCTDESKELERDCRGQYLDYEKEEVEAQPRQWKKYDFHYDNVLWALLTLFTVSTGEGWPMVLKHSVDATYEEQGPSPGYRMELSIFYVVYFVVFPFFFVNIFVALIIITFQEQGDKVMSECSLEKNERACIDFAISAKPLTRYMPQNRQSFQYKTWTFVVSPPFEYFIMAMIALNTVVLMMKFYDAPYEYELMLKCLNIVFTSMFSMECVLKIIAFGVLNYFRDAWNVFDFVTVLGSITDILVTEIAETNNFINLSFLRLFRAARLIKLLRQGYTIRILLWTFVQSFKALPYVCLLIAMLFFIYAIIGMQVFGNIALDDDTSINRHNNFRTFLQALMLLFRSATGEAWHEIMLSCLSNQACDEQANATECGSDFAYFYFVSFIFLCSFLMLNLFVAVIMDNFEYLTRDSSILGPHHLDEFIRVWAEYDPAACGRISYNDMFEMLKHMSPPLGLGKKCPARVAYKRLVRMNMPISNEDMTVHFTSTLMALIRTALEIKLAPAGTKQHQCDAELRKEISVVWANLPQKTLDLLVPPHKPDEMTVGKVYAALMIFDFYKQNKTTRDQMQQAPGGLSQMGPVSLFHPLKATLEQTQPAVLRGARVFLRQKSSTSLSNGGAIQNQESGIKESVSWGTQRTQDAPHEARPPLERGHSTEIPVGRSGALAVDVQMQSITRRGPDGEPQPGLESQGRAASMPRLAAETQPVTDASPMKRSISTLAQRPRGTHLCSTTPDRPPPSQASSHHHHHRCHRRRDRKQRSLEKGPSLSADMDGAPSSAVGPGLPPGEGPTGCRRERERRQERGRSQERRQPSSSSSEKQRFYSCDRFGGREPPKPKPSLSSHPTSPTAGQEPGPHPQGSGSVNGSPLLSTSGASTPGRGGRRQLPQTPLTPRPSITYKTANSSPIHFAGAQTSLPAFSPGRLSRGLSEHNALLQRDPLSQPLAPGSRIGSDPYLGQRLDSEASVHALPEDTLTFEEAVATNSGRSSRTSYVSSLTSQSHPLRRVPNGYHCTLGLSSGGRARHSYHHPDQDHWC
T3 sequence (Q02410 whole entry): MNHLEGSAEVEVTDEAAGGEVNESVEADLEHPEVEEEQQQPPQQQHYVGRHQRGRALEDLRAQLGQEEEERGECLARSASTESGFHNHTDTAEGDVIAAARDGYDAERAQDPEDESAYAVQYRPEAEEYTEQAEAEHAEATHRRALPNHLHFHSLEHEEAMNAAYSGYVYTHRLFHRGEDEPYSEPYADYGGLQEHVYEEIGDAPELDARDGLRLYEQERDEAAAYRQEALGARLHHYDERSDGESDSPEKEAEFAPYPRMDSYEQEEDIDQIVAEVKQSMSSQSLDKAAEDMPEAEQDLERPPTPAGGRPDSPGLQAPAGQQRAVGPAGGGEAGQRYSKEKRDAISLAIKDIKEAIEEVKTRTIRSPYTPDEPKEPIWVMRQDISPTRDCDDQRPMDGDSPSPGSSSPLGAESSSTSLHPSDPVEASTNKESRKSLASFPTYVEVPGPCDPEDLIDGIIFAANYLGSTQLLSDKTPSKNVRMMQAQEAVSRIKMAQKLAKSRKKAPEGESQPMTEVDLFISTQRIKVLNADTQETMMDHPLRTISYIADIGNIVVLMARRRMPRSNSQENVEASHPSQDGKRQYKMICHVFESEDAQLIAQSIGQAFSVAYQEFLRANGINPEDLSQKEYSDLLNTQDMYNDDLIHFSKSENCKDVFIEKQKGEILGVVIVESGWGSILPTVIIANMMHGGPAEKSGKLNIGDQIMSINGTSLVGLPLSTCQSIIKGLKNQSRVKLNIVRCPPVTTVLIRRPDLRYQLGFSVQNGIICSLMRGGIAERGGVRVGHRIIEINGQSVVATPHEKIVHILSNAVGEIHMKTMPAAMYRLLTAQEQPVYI

[12] = biological target: T3, Voltage-gated N-type calcium channel alpha-1B subunit/Amyloid beta A4 precursor protein-binding family A member 1; type: protein assay; remark: listed apart in the source
Mu-type opioid receptor = Mu-type opioid receptor (Homo sapiens, UniProt P35372); experiment: SAR Analysis of Antagonists of the MOR Receptor using an Image-Based Assay - Set 3. [Related pubchem assays (depositor defined):AID1777, AID1785, AID1786, AID1966, AID2133, AID2136, AID2284, AID2285, AID2420]; type: functional
Mu-type opioid receptor, sequence (P35372 whole entry): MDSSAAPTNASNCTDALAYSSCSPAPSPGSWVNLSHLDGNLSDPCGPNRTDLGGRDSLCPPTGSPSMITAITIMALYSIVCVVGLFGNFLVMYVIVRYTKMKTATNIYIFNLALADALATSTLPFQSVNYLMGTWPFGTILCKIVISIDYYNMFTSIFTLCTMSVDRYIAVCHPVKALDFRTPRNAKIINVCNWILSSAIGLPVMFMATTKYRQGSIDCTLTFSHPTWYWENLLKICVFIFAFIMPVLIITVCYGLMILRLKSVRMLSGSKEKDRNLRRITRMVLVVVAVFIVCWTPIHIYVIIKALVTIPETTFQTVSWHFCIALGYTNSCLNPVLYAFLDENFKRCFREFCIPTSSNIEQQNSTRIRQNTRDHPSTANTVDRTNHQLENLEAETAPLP

[13] = biological target: Delta-type opioid receptor (Homo sapiens, UniProt P41143); experiment: SAR Analysis of Antagonists of the DOR Receptor using an Image-Based Assay - Set 3. [Related pubchem assays (depositor defined):AID1777, AID1785]; type: functional;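 also: U2OS cells expressing DOR1 and beta-arrestin GFP stimulated with 100 nM SNC80; imaging of GFP-tagged beta-arrestin moving into spots after receptor activation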
Delta-type opioid receptor, sequence (P41143 whole entry): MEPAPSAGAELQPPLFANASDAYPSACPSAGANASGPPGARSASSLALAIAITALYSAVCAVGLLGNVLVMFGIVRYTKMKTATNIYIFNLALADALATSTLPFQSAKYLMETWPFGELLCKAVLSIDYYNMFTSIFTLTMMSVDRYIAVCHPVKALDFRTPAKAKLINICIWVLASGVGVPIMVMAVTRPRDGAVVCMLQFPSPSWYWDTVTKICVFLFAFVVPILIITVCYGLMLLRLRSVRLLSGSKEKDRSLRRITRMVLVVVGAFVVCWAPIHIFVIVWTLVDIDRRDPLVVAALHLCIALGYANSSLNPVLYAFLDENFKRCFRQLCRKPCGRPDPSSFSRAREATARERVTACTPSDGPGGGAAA

[14] = biological target: T4, Kappa-type opioid receptor (Homo sapiens, UniProt P41145); experiment: SAR analysis of small molecule antagonists of the kappa opioid receptor via a luminescent beta-arrestin assay - Set 3. [Related pubchem assays (depositor defined):AID1777, AID1778, AID1785, AID1786, AID1966, AID2133, AID2136, AID2285, AID2495]; type: functional
T4 sequence (P41145 whole entry): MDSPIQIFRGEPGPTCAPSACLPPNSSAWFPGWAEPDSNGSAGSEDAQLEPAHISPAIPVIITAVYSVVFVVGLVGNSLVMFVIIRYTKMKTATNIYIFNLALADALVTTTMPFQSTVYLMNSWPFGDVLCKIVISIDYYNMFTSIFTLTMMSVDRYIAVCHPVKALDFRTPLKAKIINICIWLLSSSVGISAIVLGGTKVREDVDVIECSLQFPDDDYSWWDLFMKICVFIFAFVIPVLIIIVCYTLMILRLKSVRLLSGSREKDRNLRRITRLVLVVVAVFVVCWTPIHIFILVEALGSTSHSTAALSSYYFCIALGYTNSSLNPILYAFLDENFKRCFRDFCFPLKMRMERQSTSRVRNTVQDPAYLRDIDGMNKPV

[15] = biological target: T4, Kappa-type opioid receptor; experiment: SAR analysis of Antagonists of the Kappa Opioid Receptor (KOR) using an Image-Based Assay - Set 4. [Related pubchem assays (depositor defined):AID1777, AID1785]; type: functional
Ion channel NompC = Ion channel NompC (Danio rerio, UniProt Q7T1G6); experiment: Dose response cell-based high-throughput screening assay for agonists of the transient receptor potential channel N1 (TRPN1). [Related pubchem assays (depositor defined):AID1424, AID1448]; type: functional
[16] = Trypanosoma cruzi growth suppression in host cells – NIH3T3 host cells, beta-gal luminescence, confirmation (AID 2044); type: functional, cell-based;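 also: intracellular parasites grown in NIH/3T3 mouse fibroblasts as host cells; luminescent beta-galactosidase reporter signal from transgenic T. cruzi replicating inside host cells; inhibitors lower the luminescence signal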
Mucolipin-3 = Mucolipin-3 (Homo sapiens, UniProt Q8TDD5); experiment: Fluorescence counterscreen assay for […] agonists: dose response cell-based high-throughput screening assay to identify agonists of the transient receptor potential channel ML3 (TRPML3). [Related pubchem assays: 1424, 1448 ]; type: functional
[17] = NIH3T3 cell viability loss – ATP luminescence, mouse fibroblasts, counter-screen, dose response (AID 2010); type: functional, cell-based;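 also: cells exposed to compound for about 90 hours before reading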
[18] = THP-1 cell cytotoxicity, dose response, cytotoxicity control for non-replicating M. tuberculosis project (AID 489025); type: functional
[19] = HepG2 cell cytotoxicity, dose response, cytotoxicity control for non-replicating M. tuberculosis project (AID 489018); type: functional; settings: Mycobacterium tuberculosis
[20] = biological target: Eukaryotic translation initiation factor 4E (Mus musculus, UniProt P63073); experiment: blockers of eIF4G binding by eIF4E – biochemical, TR-FRET, dose response (AID 855); type: functional;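 also: potency for disrupting eIF4E binding to eIF4GI seen as loss of FRET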
Eukaryotic translation initiation factor 4E, sequence (P63073 whole entry): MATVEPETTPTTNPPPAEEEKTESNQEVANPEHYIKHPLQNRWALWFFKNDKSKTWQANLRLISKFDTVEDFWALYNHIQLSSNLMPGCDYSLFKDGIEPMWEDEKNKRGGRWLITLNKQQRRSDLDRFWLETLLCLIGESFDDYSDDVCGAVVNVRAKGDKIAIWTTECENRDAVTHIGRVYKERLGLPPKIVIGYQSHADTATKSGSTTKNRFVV

[21] = Vero E6 cell cytotoxicity, dose response, cytotoxicity control for non-replicating M. tuberculosis project, secondary assay (AID 492998); type: functional, VeroE6; settings: Vero C1008
cells = type: functional
[22] = reduction of Shn3 3'UTR-driven luciferase in osteoblasts – cell-based, Clone20 osteoblasts, firefly luciferase, cherry-picked, dose response (AID 624132); type: functional;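 also: firefly luciferase luminescence from reporter carrying the Shn3 3'UTR in osteoblasts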
[23] = loss of viability in HepG2 cells – cell-based, CellTiter-Glo, cherry-picked, cytotoxicity control for Shn3 inhibitor project, dose response (AID 624134); type: functional
[24] = non-specific 3'UTR reporter inhibition in Clone20-Shn3RL – cell-based, Renilla luciferase, cherry-picked, counter-screen for Shn3 inhibitor project, dose response (AID 624133); type: functional

## COc1ccc(N(C(=O)CCl)C(C(=O)NCCc2ccccc2)c2cccs2)cc1 (centres undefined)
BJ [1]
  EC50: 1.22 µM (active)
BJ [2]
  EC50: 2.97 µM (inconclusive)
[3]
  EC50: 1.1 µM (active)
[4]
  EC50: 0.986 µM (active)
BJ [5]
  EC50: 4.61 µM (active)
[6]
  EC50: 2.62 µM (active)
[7]
  CC50: 0.43 µM (active)
[8]
  AC50: 2.64 µM (active)
BJ [9]
  EC50: 2.69 µM (active)
Protein RecA
  EC50: 0.327 µM (active)
Paired box protein Pax-8
  AC50: 2.44 µM (active)
[10]
  AC50: 4.64 µM (active)

## CC(=O)c1cccc(NC(=O)c2cc(-c3ccc(C)cc3)on2)c1
[11]
  IC50: 15.5 µM (active)
[12]
  IC50: > 50 µM (inactive)

## COc1ccc(N2CCN(CCCNC(=O)Cn3c(=O)c4cccn4c4cc(Br)cnc43)CC2)cc1
Mu-type opioid receptor
  IC50: 10.3 µM (inactive)
[13]
  IC50: > 32 µM (inactive)
[14]
  IC50: 3.05 µM (active)
[15]
  IC50: 0.693 µM (active)

## Cc1cc(N2CCCCC2)nc(NCc2ccccc2)n1
BJ [1]
  EC50: 17.4 µM (active)
BJ [2]
  EC50: 21.4 µM (active)
Ion channel NompC
  EC50: > 3.32 µM (inactive)
[16]
  EC50: 2.04 µM (active)
Mucolipin-3
  EC50: > 3.32 µM (active)
[17]
  EC50: > 60 µM (not active)
BJ [5]
  EC50: > 75 µM (inconclusive)
[6]
  EC50: 25.9 µM (active)
[18]
  CC50: 8.56 µM (active)
[19]
  CC50: > 20 µM (active)
[20]
  IC50: > 64 µM (inactive)
[21]
  CC50: > 20 µM (active)
cells
  IC50: 40.2 µM (active)
[22]
  AC50: 4.01 µM (active)
[23]
  AC50: 54.8 µM (active)
[24]
  AC50: 6.27 µM (active)
